From article PMC3440873 (Bioorganic & medicinal chemistry letters, 2011)

Experiments:
BIR2 domain of XIAP = BIR2 domain of XIAP (Homo sapiens, UniProt P98170); settings: from Ki values
[1] = test system: MDA-MB-231 breast adenocarcinoma cells; settings: MDA-MB-231 cells; for TRAIL sensitizing activity: compound 4 h, then TRAIL 20 h (Fig. 4)

Chain of BIR2 domain of XIAP (P98170 124-240 limits assumed): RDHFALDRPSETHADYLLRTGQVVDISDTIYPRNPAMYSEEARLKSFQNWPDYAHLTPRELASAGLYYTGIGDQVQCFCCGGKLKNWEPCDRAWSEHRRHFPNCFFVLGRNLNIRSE

For CN[C@@H](C)C(=O)N[C@H](C(=O)N1CCC[C@H]1C(=O)NNc1ccccc1)C(C)C [Compound 9j], the “selectivity for BIR2 vs. BIR3” value (BIR2 domain of XIAP) was “three-fold selective” and the TRAIL sensitizing activity [1] was “slightly less potent”.
“TRAIL: apoptosis-inducing agent added to MDA-MB-231 cells at varying concentrations” was tested, and the “LD50 of TRAIL” value ([1]; TRAIL alone) was “could not be achieved”.
For CN[C@@H](C)C(=O)N[C@H](C(=O)N1CCC[C@H]1C(=O)N[C@@H]1CCCc2ccccc21)C(C)C [Compound 9f], the TRAIL sensitizing activity [1] was “strong TRAIL sensitizing activity”.
